Assay results published in PMC5958064, “Single cell analysis of kynurenine and System L amino acid transport in T cells” (Nature Communications, 2018).
Read-outs that look alike come from different tables or passages of the source.

How the values were obtained:
[1] = target: T1, System L transporter SLC7A5 (Mus musculus, UniProt Q9Z127); test: Flow cytometry kynurenine uptake assay (450 nm fluorescence) in T cells; type: cell-based; conditions: for IC50: 37 °C
T1 construct: endogenous in cells
Source text: For cell surface staining, antibodies conjugated to FITC, PE, APC, Alexafluor 647 (A647), APC-efluor780 (APCe780), and PerCPCy5.5 were obtained from either BD Pharmingen, eBioscience or Biolegend. Fc receptors were blocked using Fc Block (BD Pharmingen). Antibody clones used were: CD4 (RM4-5), CD8a (53-6.7), TCRβ (H57-597), CD44 (IM7), CD45.1 (A20), CD45.2 (104) and CD98 (RC388). Cells were fixed using 1% paraformaldehyde. Standard intracellular cytokine staining protocols were followed for IFNγ (clone XMG1.2; Biolegend) staining. Data were acquired on a LSR Fortessa II with DIVA software or a FACSVerse flow cytometer with FACSuite software (BD Biosciences) and analysed using FlowJo software version 9.9.5 (TreeStar).
Start with at least 1 × 10^6 cells per condition, to obtain at least 200,000 events analysed by flow cytometry at the end of the protocol. […] If required, surface cell antibody staining should be performed prior to uptake assay protocol. This may be performed at room temperature or 4 °C, however test samples must be warmed to 37 °C, e.g. in water bath, prior to kynurenine uptake. (As with all multi-parameter flow cytometry, appropriate antibody staining controls must also be performed.) Samples can be fixed immediately after uptake assay by addition of 4% (vol/vol) paraformaldehyde (PFA; to a final concentration of 1%) for 30 min at room temperature.
For kynurenine uptake assay; pre-warm kynurenine (800 μM, in HBSS), BCH (40 mM, in HBSS) and lysine (20 mM, HBSS) and HBSS to 37 °C. After surface antibody staining of samples, resuspend cells in 200 μl warmed HBSS (1–5 × 10^6 cells in FACS tubes, or scale accordingly into plates). Keep cells in water bath at 37 °C. Add 100 μl of HBSS, or BCH or lysine to appropriate samples. Add 100 μl HBSS to no kynurenine controls (final volume 400 μl). Finally, add 100 μl kynurenine to appropriate samples. Stop uptake after 4 min by adding 125 μl 4% PFA for 30 min at room temperature, in the dark. The final concentrations for uptake assay are: 200 μM kynurenine; +/-10 mM BCH; +/-5 mM lysine. After fixation, wash cells twice in PBS/0.5% BSA and resuspend in PBS/0.5% BSA prior to acquisition on flow cytometer. The 405 nm laser and 450/50 BP filter are used for kynurenine fluorescence detection.
To monitor kynurenine uptake in live cells, acquire data on flow cytometer immediately following addition of kynurenine and plot fluorescence against time.

[2] = target: T1, System L transporter SLC7A5; test: Radiolabelled 3H-kynurenine uptake in T cells; type: cell-based
Method: To activate primary T cells, spleens and/or lymph nodes (LN) were removed, disaggregated and red blood cells lysed. Cells were stimulated with 1 μg/ml of the CD3 monoclonal antibody (2C11) and 2 μg/ml anti-CD28 (37.51; ebiosciences) to trigger the TCR. Naive CD4^+ T cells and 24 h TCR-activated CD4^+ T cells were purified using CD4 isolation kit (EasySep, STEMCELL Technologies). […] Proleukin, Novartis) for a further 3-5 days. To generate TH1s and TH17s, murine CD8^+ T cells were depleted from lymph node preparations using CD8 depletion kit (EasySep, STEMCELL Technologies). […] RnD Systems) and IL-2 (20 ng/ml) and for TH17s; cytokines IL-6 (50 ng/ml, Peprotech), IL-1β (10 ng/ml, Peprotech) and TGFβ (2 ng/ml, Peprotech). TH17s were cultured in IMDM (Gibco). All other cells were cultured in RPMI 1640 containing L-glutamine (Gibco). Culture media was supplemented with 10% FBS (Gibco), 50 μM β-mercaptoethanol (β-ME, Sigma) and penicillin/streptomycin (Gibco). Cells were incubated at 37 °C with 5% CO2 throughout. […] Cells were pelleted below the oil, the aqueous supernatant solution, followed by the silicon oil/dibutyl phthalate mixture was aspirated, and the cell pellet underneath resuspended in 200 μl NaOH (0.5 M) and β-radioactivity measured by liquid scintillation counting in a Beckman LS 6500 Multi-Purpose Scintillation Counter (Beckman Coulter). […] Where indicated, the sodium free buffer was prepared using TMACl as described in Baird et al.[35] Data are expressed as molecules radiotracer per cell per minute. […] All other chemicals were obtained from Sigma.

AHR [3] = test: Cyp1a1 mRNA induction in TH17cond CD4+ T cells (qPCR); type: cell-based, mouse
Method: To activate primary T cells, spleens and/or lymph nodes (LN) were removed, disaggregated and red blood cells lysed. Cells were stimulated with 1 μg/ml of the CD3 monoclonal antibody (2C11) and 2 μg/ml anti-CD28 (37.51; ebiosciences) to trigger the TCR. Naive CD4^+ T cells and 24 h TCR-activated CD4^+ T cells were purified using CD4 isolation kit (EasySep, STEMCELL Technologies). […] Proleukin, Novartis) for a further 3–5 days. To generate TH1s and TH17s, murine CD8^+ T cells were depleted from lymph node preparations using CD8 depletion kit (EasySep, STEMCELL Technologies). […] RnD Systems) and IL-2 (20 ng/ml) and for TH17s; cytokines IL-6 (50 ng/ml, Peprotech), IL-1β (10 ng/ml, Peprotech) and TGFβ (2 ng/ml, Peprotech). TH17s were cultured in IMDM (Gibco). All other cells were cultured in RPMI 1640 containing L-glutamine (Gibco). Culture media was supplemented with 10% FBS (Gibco), 50 μM β-mercaptoethanol (β-ME, Sigma) and penicillin/streptomycin (Gibco). Cells were incubated at 37 °C with 5% CO2 throughout. […] RNA was purified using the RNeasy RNA purification Mini Kit (Qiagen) (Genomic DNA was digested with RNase-free DNase (Qiagen) following manufacturer instructions) and reverse-transcribed using the iScript cDNA synthesis kit (BioRad). Quantitative PCR was performed in 96-well plate format using iQ SYBR Green-based detection (BioRad) on a BioRad iCycler.

[4] = tested on: Cyp1A1 expression in U87 glioma cells; design: method as in PMID 21976023; conditions: read-out: EC50 to drive Cyp1A1 expression; cited from earlier work
AHR [5] = tested on: AHR; design: method as in PMID 29279331; conditions: COS-1 cells; read-out: EC50 for AHR activation; cited from earlier work
[6] = summary over CTL, TH1 and 24 h TCR-stimulated T cells

T1 sequence (Q9Z127 whole entry): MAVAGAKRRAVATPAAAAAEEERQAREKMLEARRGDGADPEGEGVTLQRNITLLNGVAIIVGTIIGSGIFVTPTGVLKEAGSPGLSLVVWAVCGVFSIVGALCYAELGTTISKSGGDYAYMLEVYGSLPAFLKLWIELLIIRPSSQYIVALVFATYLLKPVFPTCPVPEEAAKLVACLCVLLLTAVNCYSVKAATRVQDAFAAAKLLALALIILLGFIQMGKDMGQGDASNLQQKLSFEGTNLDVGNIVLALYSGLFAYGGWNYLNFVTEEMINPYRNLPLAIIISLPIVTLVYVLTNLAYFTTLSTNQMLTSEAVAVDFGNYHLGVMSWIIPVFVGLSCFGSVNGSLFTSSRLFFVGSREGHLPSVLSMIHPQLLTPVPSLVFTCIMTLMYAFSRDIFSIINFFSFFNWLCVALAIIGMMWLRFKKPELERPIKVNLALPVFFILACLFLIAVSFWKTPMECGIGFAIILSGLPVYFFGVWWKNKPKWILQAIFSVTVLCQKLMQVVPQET
T1 sequence (P10852 whole entry partner): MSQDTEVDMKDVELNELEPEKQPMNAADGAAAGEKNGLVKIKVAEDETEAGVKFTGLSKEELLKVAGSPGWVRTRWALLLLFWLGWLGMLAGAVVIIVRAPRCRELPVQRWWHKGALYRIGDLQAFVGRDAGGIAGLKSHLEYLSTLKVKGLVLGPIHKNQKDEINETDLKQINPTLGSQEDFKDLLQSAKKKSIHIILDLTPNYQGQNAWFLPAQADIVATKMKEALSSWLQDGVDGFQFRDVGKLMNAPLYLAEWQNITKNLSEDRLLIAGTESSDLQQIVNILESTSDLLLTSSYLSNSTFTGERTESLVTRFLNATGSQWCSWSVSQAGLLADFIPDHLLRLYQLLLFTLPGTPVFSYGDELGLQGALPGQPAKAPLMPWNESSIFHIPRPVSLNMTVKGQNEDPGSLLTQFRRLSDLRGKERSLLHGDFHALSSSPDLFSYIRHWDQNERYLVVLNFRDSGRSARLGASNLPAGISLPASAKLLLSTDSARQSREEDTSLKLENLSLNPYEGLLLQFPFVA

Nc1ccccc1C(=O)CC(N)C(=O)O (stereo not shown) [kynurenine]
temperature dependence of kynurenine-mediated increase in MFI ([1]; CTLs, 4 min, 37 °C vs 4 °C): temperature sensitive
Km ([1]; IL-2 maintained CTLs, flow cytometry assay (MFI), read-out: Km for the initial rate of kynurenine transport): 267 µM
Km ([2]; CTLs, rounded value in Discussion, read-out: Km of kynurenine transport in CTLs): ~200 µM
Km ([2]; IL-2 maintained CTLs, radiolabelled kynurenine transport assay, read-out: Km for the initial rate of kynurenine transport): 213 µM
sodium dependence of uptake ([2]; TCR-activated CD4+ T cells, TH1s and CTLs, Na+ containing vs Na+-free buffer): sodium independent
EC50 (AHR [3]; D3 TH17cond CD4+ T cells, 2 h, read-out: EC50 to drive Cyp1A1 mRNA expression): 11.1 µM
Cyp1a1 mRNA induction, D3 versus D5 post activation (AHR [3]; TH17cond CD4+ T cells, kynurenine 100 μM or FICZ 300 nM, 2 h): strikingly higher on day 3 post activation compared to day 5 cells
EC50 [4]: 12.3 µM
EC50 (AHR [5]): 13 µM

NC1(C(=O)O)CC2CCC1C2 (stereo not shown) [BCH, 2-amino-2-norbornanecarboxylic acid]
Percentage of kynurenine uptake blocked by BCH, Kyn MFI ([1]; 24 h CD3/CD28 stimulated T cells (TCR), 450 nm fluorescence emission): 77.1 ± 14.7%
effect on kynurenine uptake ([1]; CD3/CD28 activated wild-type T cells in co-culture, 5 mM lysine, BCH): BCH treatment did
IC50 ([1]; CTL, 4 min): 492 ± 45 µM
Percentage of kynurenine uptake blocked by BCH, Kyn MFI ([1]; CTL, 450 nm fluorescence emission): 78.3 ± 4.5%
IC50 ([1]; D7 rLM CD8+ effector T cells from spleen, ex vivo, 4 min): 161 ± 34 µM
effect on kynurenine transport ex vivo ([1]; D7 rLM-infected CD8+ T cells, BCH 10 mM, Leu 5 mM, Lys 5 mM): blocked
effect on kynurenine transport (450 nm fluorescence) ([1]; TCR-stimulated CD8+ T cells or CTLs, 4 min, BCH 10 mM, Leu 5 mM, Lys 5 mM): prevented
Percentage of kynurenine uptake blocked by BCH, Kyn MFI ([1]; TH1, 450 nm fluorescence emission): 81.0 ± 9.0%
kynurenine transport blocked as measured by flow cytometry [1, 6]: 80%
Percentage of kynurenine uptake blocked by BCH, 3H-Kyn ([2]; 24 h CD3/CD28 stimulated T cells (TCR), 4 min uptake): 79.1 ± 11.3%
Percentage of kynurenine uptake blocked by BCH, 3H-Kyn ([2]; CTL, 4 min uptake): 92.5 ± 0.9%
Percentage of kynurenine uptake blocked by BCH, 3H-Kyn ([2]; TH1, 4 min uptake): 90.2 ± 2.1%
effect on 3H-kynurenine transport ([2]; TH1 cells and CTLs, BCH 5 mM): inhibited
radiolabelled kynurenine uptake blocked [2, 6]: 80–90%
effect on FICZ-induced Cyp1a1 mRNA (AHR [3]; D3 TH17cond CD4+ T cells, FICZ 300 nM 2 h, BCH 25 mM): does not block FICZ mediated Cyp1a1 mRNA induction
effect on kynurenine-induced Cyp1a1 mRNA (AHR [3]; D3 TH17cond CD4+ T cells, kynurenine 100 μM 2 h, BCH 25 mM): impedes Cyp1a1 mRNA induction in response to kynurenine
